In ChEMBL document CHEMBL1201862, “PubChem BioAssay data set” (2004):
Activity calls are given as the source filed them. For most assays here, no stated cut-off is given here; in the data, actives have a measured EC50 and inactives only a lower limit.

Key:
[1] = target: T1, Sentrin-specific protease 8 (Homo sapiens, UniProt Q96LD8); format: functional;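 further: luminescence read-out of SENP8 inhibition, dose-response confirmation following an ultra-high-throughput screen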
T1 sequence (Q96LD8 whole entry): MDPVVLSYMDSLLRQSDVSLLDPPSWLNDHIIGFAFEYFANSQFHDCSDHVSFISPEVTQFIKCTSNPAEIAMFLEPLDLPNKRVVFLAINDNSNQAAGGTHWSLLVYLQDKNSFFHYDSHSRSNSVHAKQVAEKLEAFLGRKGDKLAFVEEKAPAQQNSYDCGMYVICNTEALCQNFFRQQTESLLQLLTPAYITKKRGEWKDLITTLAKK

[2] = target: T2, Sentrin-specific protease 7 (Homo sapiens, UniProt Q9BQF6); format: functional;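 further: Luminescence-based dose-response confirmation of ultra-high-throughput screening hits, measuring inhibition of SENP7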
T2 sequence (Q9BQF6 whole entry): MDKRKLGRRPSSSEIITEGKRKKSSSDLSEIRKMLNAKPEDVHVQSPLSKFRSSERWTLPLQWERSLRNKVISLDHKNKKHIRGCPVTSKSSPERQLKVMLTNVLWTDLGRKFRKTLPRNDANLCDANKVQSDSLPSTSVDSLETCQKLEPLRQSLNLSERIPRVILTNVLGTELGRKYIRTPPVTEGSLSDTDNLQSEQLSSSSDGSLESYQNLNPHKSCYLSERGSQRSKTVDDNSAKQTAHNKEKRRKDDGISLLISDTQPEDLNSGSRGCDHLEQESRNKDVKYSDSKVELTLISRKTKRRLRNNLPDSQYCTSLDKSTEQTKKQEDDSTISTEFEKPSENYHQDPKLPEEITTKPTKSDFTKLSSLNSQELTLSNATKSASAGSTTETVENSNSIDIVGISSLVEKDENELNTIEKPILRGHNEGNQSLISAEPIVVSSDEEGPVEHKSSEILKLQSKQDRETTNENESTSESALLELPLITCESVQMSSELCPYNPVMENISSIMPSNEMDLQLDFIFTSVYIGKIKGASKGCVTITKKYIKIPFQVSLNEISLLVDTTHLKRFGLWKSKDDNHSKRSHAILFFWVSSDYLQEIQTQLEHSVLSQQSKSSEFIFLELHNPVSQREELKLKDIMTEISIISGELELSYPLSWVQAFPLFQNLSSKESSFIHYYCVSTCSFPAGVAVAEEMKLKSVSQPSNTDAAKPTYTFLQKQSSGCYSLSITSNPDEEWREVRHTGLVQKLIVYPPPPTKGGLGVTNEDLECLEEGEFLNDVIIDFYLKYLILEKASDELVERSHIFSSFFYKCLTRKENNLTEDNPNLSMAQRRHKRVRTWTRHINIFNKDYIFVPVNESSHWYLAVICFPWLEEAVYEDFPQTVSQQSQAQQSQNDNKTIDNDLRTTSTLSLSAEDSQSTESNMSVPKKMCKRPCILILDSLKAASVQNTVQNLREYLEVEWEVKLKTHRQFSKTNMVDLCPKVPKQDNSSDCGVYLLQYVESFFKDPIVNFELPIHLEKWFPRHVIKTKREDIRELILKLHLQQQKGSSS

[3] = target: T3, Caspase-3 (Homo sapiens, UniProt P42574); format: functional;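 further: Dose-response selectivity test against caspase-3 for candidate inhibitors of sentrin-specific proteases (SENPs)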
T3 sequence (P42574 whole entry): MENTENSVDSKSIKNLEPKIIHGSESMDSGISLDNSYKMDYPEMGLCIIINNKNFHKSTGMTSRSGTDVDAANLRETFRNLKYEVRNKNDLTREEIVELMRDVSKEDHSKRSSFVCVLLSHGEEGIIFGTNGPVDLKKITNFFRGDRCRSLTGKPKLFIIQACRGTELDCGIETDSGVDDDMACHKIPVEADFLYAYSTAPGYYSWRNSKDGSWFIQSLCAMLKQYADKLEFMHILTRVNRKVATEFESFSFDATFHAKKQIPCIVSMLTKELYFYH

[4] = target: T4, Sentrin-specific protease 6 (Homo sapiens, UniProt Q9GZR1); format: functional;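 further: Luminescence-based dose-response confirmatory assay of SENP6 inhibition, following up an ultra-high-throughput screen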
T4 sequence (Q9GZR1 whole entry): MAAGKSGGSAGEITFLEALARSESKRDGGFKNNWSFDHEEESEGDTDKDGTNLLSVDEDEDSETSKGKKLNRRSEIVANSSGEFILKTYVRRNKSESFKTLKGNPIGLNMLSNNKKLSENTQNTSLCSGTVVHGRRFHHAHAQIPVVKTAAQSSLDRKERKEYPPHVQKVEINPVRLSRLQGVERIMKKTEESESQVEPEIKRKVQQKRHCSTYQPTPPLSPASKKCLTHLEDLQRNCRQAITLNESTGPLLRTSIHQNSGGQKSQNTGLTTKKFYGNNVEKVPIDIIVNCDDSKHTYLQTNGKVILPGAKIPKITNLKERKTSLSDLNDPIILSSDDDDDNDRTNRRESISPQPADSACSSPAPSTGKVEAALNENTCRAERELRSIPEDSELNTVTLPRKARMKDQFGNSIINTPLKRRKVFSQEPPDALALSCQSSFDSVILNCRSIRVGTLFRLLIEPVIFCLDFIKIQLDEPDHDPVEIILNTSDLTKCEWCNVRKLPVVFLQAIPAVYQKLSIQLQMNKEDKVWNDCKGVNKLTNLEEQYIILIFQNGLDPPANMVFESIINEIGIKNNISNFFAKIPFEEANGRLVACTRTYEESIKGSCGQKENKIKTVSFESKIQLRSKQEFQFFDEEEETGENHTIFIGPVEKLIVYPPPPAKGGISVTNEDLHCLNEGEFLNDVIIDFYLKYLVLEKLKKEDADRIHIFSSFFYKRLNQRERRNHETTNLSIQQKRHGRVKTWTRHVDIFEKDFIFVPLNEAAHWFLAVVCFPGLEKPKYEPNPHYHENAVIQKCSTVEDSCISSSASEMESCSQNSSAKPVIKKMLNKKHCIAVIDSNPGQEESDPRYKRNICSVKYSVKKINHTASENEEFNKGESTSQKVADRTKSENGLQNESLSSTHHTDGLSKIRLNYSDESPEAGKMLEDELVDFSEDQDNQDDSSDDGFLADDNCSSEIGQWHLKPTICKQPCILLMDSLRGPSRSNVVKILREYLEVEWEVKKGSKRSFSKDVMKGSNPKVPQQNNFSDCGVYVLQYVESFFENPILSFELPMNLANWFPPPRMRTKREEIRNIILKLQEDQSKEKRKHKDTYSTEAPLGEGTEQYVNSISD

[5] = tested on: HEK293; test: inhibitors of LMP1-driven NF-kB reporter, dose response, cell-based, HEK293, luciferase, cherry-pick (AID 588343); format: functional; settings: Homo sapiens
[6] = C. albicans growth with fluconazole, confirmation, fluorescence, retest (AID 2467); format: functional, cell-based
[7] = target: Heat shock protein HSP 90-alpha (Homo sapiens, UniProt P07900); format: functional, organism-based
[8] = NIH-3T3 fibroblast cytotoxicity, dose response, cytotoxicity control, cell-based, fluorescence, Alamar Blue, secondary assay (AID 2327); format: functional;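 further: NIH-3T3 mouse fibroblasts cultured with fluconazole at 8 µg/mL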
[9] = inhibitors of firefly luciferase expression or activity, dose response, H4 neuroglioma cells, luminescence (AID 1990); format: functional, cell-based
[10] = tested on: Streptococcus; test: Group A Streptococcus viability loss, dose response, counter-screen for streptokinase expression inhibitor project, luminescence, BacTiterGlo (AID 1915); format: functional, organism-based;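 further: potency for reduction of bacterial viability or growth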
[11] = tested on: Streptococcus sp. 'group A'; test: growth inhibition of control SK(-) GAS strain, dose response, counter-screen for streptokinase expression inhibitor project, luminescence, kanamycin, BacTiterGlo, confirmation (AID 1900); format: functional, organism-based
[12] = luciferase reporter signal reduction – luminescence, H4-C neuroglioblastoma cells, dose response (AID 2458); format: functional, cell-based;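 further: H4 neuroglioblastoma cells stably carrying a luciferase reporter gene fusion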
[13] = tested on: BJ; test: cytotoxicity toward Ras-transformed BJeLR fibroblasts, dose response, cell-based, alamar blue fluorescence, cherrypicked samples (AID 2631); format: functional; settings: Homo sapiens;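 further: confirmatory dose-response assay in RAS-dependent BJ fibroblasts engineered with TERT, LT and ST, with cytotoxicity read by fluorescence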
[14] = target: ATP-dependent molecular chaperone HSP82 (Candida albicans (strain WO-1) (Yeast), UniProt C4YTQ8); test: loss of DOC-induced GRE-beta-galactosidase reporter signal, dose response, Hsp90 inhibitor project, S. cerevisiae, luminescence (AID 2400); format: functional, cell-based;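 further: beta-galactosidase luminescence from glucocorticoid response element reporter as proxy for Hsp90 function; inhibitor potency where signal loss means Hsp90 inhibition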
[15] = target: T5, Streptokinase A (Streptococcus pyogenes serotype M1, UniProt P10520); test: S. pyogenes streptokinase expression inhibitors, potency, dose response, plasminogen activation absorbance, OD405 (AID 1914); format: functional, Streptococcus pyogenes M1 GAS;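 further: secreted streptokinase activity via plasminogen activation per viability signal from cell pellet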
T5 sequence (P10520 whole entry): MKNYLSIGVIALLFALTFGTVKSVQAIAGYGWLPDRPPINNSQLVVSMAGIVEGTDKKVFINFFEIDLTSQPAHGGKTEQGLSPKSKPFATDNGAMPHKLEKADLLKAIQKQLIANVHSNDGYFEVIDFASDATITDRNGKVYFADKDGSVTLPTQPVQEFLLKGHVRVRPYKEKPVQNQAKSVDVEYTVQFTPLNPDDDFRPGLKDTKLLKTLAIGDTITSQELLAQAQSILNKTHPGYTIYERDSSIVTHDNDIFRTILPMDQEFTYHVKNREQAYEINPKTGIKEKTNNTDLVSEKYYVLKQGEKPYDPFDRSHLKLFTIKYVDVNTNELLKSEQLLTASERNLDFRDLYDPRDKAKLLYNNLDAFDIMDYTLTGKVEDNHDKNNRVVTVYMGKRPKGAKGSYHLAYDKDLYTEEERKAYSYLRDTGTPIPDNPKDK

[16] = target: Nonstructural protein 1 (Influenza A virus, UniProt Q194T2); format: functional, Influenza A virus (A/California/07/2009(H1N1))
[17] = Luminescence Cell-Based Dose Response HTS to Identify Inhibitors of 5'UTR Stem-Loop Driven Prion Protein mRNA Translation in H4 Neuroglioblastoma Cells. [Related pubchem assays: 1827 (Project Summary), 1813 (Primary HTS)]; format: functional
[18] = inhibitors of SNCA 5'UTR-driven translation, confirmation, luminescence, H4 neuroglioblastoma cells, dose confirmation (AID 2454); format: functional, cell-based;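 further: H4 neuroglioblastoma cells carrying an alpha-synuclein 5'UTR luciferase reporter; potency for inhibition of the luciferase signal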
[19] = inhibitors of SNCA 5'UTR-driven reporter translation, confirmation, H4 neuroglioma cells, luminescence (AID 1988); format: functional, cell-based
[20] = target: T6, Serine/threonine-protein phosphatase (Candida dubliniensis (strain CD36 / CBS 7987 / NCPF 3949 / NRRLY-17841) (Yeast), UniProt B9W6M3); test: calcineurin pathway inhibitors in yeast reporter, dose response, S. cerevisiae, CDRE-lacZ, luminescence, secondary (AID 2388); format: functional, cell-based;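 further: yeast reporter cells carrying a calcineurin-responsive lacZ construct stimulated with calcium chloride; luminescent beta-galactosidase reporter signal in whole cells rather than isolated phosphatase activity; potency for inhibition where a drop in reporter signal means calcineurin blockade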
T6 sequence (B9W6M3 whole entry): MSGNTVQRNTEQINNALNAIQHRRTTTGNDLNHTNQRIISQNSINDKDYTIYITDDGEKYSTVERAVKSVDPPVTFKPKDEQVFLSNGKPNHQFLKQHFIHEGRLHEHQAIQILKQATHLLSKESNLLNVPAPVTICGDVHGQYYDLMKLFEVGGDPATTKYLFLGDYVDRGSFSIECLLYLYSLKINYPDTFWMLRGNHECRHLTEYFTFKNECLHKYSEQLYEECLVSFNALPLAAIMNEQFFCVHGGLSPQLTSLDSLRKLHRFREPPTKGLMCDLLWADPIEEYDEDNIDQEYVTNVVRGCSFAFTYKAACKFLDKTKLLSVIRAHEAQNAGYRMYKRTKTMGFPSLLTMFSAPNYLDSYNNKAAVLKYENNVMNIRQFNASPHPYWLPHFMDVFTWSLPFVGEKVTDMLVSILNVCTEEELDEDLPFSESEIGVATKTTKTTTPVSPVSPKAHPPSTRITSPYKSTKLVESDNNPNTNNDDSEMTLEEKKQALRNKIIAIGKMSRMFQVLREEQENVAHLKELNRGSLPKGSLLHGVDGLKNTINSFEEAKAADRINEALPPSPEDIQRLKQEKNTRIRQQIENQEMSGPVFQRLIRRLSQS

[21] = cells; format: functional, cell-based

Sequence of ATP-dependent molecular chaperone HSP82 (C4YTQ8 whole entry): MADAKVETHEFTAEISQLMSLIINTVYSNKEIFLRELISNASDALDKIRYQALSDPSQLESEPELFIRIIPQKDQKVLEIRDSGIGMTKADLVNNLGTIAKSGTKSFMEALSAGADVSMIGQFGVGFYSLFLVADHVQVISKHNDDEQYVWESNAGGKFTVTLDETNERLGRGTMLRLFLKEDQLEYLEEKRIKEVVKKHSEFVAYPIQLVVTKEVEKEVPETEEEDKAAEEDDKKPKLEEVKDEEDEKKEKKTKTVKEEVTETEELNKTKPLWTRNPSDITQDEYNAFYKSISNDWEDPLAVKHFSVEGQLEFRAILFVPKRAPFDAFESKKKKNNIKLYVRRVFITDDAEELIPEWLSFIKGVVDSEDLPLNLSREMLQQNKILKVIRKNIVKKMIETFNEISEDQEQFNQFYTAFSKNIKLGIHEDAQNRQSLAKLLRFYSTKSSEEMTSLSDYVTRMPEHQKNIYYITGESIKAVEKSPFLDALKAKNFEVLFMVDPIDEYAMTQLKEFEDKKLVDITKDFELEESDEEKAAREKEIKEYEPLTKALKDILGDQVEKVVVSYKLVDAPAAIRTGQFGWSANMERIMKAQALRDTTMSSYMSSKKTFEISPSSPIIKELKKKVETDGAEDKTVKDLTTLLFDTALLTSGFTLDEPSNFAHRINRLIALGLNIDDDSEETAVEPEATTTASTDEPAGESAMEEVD
Sequence of Nonstructural protein 1 (Q194T2 whole entry): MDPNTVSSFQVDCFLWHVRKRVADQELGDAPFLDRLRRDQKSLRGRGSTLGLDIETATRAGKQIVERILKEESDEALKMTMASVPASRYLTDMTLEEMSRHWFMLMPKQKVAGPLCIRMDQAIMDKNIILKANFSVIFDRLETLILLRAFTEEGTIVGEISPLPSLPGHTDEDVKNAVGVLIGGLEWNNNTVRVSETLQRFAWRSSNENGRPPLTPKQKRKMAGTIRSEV

For `COn1c(-c2ccccc2)nc2ccc(Cl)cc21`, the IC50 [1] was 34.9 µM (active), the IC50 [2] was 13.1 µM (active) and the IC50 [3] was 20.1 µM (active). For the same compound, the IC50 [4] was 30 µM (active).

In the case of `COc1ccc(-c2csc3ncnc(NCCO)c23)cc1`, the AC50 [5] is reported as 13.9 µM (active).

With `CC(C)CC(=NNC(=O)c1ccncc1)c1cc(Cl)ccc1O` the AC50 [5] was 4.28 µM (active).

With `CCOC(=O)/C(=N\Nc1ncnc2ccccc12)c1ccc(OC)cc1` the IC50 [1] was 14.2 µM (active), the IC50 [2] was 3.39 µM (active) and the IC50 [3] was 16.9 µM (active). The IC50 [4] was 5.23 µM (active).

In the case of `O=C(N/N=C/c1cc2c3c(c1O)CCCN3CCC2)c1ccccc1O`, the EC50 [6] is reported as 429 nM (active), the AC50 [7] is reported as 2.14 µM (active) and the EC50 [8] is reported as 23.7 µM (active). For the same compound, the EC50 [9] was 2.89 µM (active), the EC50 [10] was 12 µM (active) and the EC50 [11] was 8.16 µM (active). The EC50 [12] was 558 nM (active), the EC50 [13] was 22.4 µM (active) and the EC50 [14] was 18.1 µM (active). The AC50 [5] was 5.6 µM (active), the EC50 [15] was > 150 µM (not active) and the IC50 [16] was 3.22 µM (active). The EC50 [17] was 102 nM (active), the EC50 [18] was 798 nM (active) and the EC50 [19] was < 100 nM (active). The EC50 [20] was 18.2 µM (active) and the EC50 [21] was 687 nM (active).
